PubChem BioAssay AID1963964 (Molecular Pharmacology Branch, DTP, NCI, 2024)

System: 997726-040-R-J2-PDC tumor spheroids, viability
Assay: Anticancer human tumor 997726-040-R-J2-PDC patient-derived squamous cell lung carcinoma cell line growth inhibition [PI3K]
Details: spheroids with HUVEC and MSC; for viability, T/C: stronger effect = lower value; active = viability on the fitted dose curve at most 10% of control; inactive = the rest
Procedure, shortened: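 Multi-cell spheroids combine tumor cells with HUVEC and human MSCs, treated with targeted agents alone or with inavolisib, alpelisib, duvelisib or copanlisib. Concentrations fall in half-log steps from at or near clinical Cmax, or from 10 microM where Cmax is unknown; viability read-out.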

[1] = curve of first compound, second compound 0.00316 µM
[2] = curve of first compound, second compound 0.01 µM
[3] = curve of first compound, second compound 0.0316 µM
[4] = curve of first compound, second compound 0.1 µM
[5] = curve of first compound, second compound 0.316 µM
[6] = curve of first compound, second compound 1 µM
[7] = second compound 0.00316 µM, first compound 0.0316 µM
[8] = second compound 0.00316 µM, first compound 0.1 µM
[9] = second compound 0.00316 µM, first compound 0.316 µM
[10] = second compound 0.00316 µM, first compound 1 µM
[11] = second compound 0.00316 µM, first compound 3.16 µM
[12] = second compound 0.00316 µM, first compound 10 µM
[13] = second compound 0.01 µM, first compound 0.0316 µM
[14] = second compound 0.01 µM, first compound 0.1 µM
[15] = second compound 0.01 µM, first compound 0.316 µM
[16] = second compound 0.01 µM, first compound 1 µM
[17] = second compound 0.01 µM, first compound 3.16 µM
[18] = second compound 0.01 µM, first compound 10 µM
[19] = second compound 0.0316 µM, first compound 0.0316 µM
[20] = second compound 0.0316 µM, first compound 0.1 µM
[21] = second compound 0.0316 µM, first compound 0.316 µM
[22] = second compound 0.0316 µM, first compound 1 µM
[23] = second compound 0.0316 µM, first compound 3.16 µM
[24] = second compound 0.0316 µM, first compound 10 µM
[25] = second compound 0.1 µM, first compound 0.0316 µM
[26] = second compound 0.1 µM, first compound 0.1 µM
[27] = second compound 0.1 µM, first compound 0.316 µM
[28] = second compound 0.1 µM, first compound 1 µM
[29] = second compound 0.1 µM, first compound 3.16 µM
[30] = second compound 0.1 µM, first compound 10 µM
[31] = second compound 0.316 µM, first compound 0.0316 µM
[32] = second compound 0.316 µM, first compound 0.1 µM
[33] = second compound 0.316 µM, first compound 0.316 µM
[34] = second compound 0.316 µM, first compound 1 µM
[35] = second compound 0.316 µM, first compound 3.16 µM
[36] = second compound 0.316 µM, first compound 10 µM
[37] = second compound 1 µM, first compound 0.0316 µM
[38] = second compound 1 µM, first compound 0.1 µM
[39] = second compound 1 µM, first compound 0.316 µM
[40] = second compound 1 µM, first compound 1 µM
[41] = second compound 1 µM, first compound 3.16 µM
[42] = second compound 1 µM, first compound 10 µM
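Also: spheroids exposed to compounds for seven days before readout.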

Cn1nccc1Nc1nccc(-c2ccn(C(CO)c3ccc(Cl)c(F)c3)c(=O)c2)n1 (stereo unspecified) + CC(Nc1ccc2c(c1)OCCn1cc(N3C(=O)OCC3C(F)F)nc1-2)C(N)=O
< 31.6 nM: IC50 [4] | IC50 [5] | IC50 [6]
4670 nM: IC50 [2]
> 10000 nM: IC50 [1]
inactive: viability, T/C [7] 93% | viability, T/C [8] 75.4% | viability, T/C [9] 63.5% | viability, T/C [10] 64.3% | viability, T/C [11] 55.9% | viability, T/C [12] 49.4% | viability, T/C [13] 74.5% | viability, T/C [14] 72.6% | viability, T/C [15] 70.2% | viability, T/C [16] 58.9% | viability, T/C [17] 58.7% | viability, T/C [18] 39.6% | viability, T/C [19] 65.2% | viability, T/C [20] 57.5% | viability, T/C [21] 52% | viability, T/C [22] 47.3% | viability, T/C [23] 43.9% | viability, T/C [24] 31.8% | viability, T/C [25] 44.6% | viability, T/C [26] 39.5% | viability, T/C [27] 34.8% | viability, T/C [28] 32% | viability, T/C [29] 33.5% | viability, T/C [30] 23.6% | viability, T/C [31] 35.5% | viability, T/C [32] 34.4% | viability, T/C [33] 30% | viability, T/C [34] 31% | viability, T/C [35] 27.9% | viability, T/C [36] 20% | viability, T/C [37] 25.7% | viability, T/C [38] 27.5% | viability, T/C [39] 23% | viability, T/C [40] 27% | viability, T/C [41] 25.1% | viability, T/C [42] 19.1%
601 nM: IC50 [3]

COc1c(OCCCN2CCOCC2)ccc2c3n(c(=NC(=O)c4cnc(N)nc4)nc12)CCN3
active: viability, T/C (compound 0.316 µM) 4.98% [middle of 8 runs] | viability, T/C (compound 1 µM) 1.19% [middle of 8 runs]
inactive: viability, T/C (compound 0.00316 µM) 82.3% [middle of 8 runs] | viability, T/C (compound 0.01 µM) 58.9% [middle of 8 runs] | viability, T/C (compound 0.0316 µM) 36.3% [middle of 8 runs] | viability, T/C (compound 0.1 µM) 22.1% [middle of 8 runs]
15.9 nM [middle of 8 runs]: IC50 (compound alone, run of 06/13/2023)

C#Cc1c(F)ccc2cc(O)cc(-c3ncc4c(N5CC6CCC(C5)N6)nc(OCC56CCCN5CC(F)C6)nc4c3F)c12 (stereo unspecified) + COc1c(OCCCN2CCOCC2)ccc2c3n(c(=NC(=O)c4cnc(N)nc4)nc12)CCN3
< 31.6 nM: IC50 [3] | IC50 [4] | IC50 [5] | IC50 [6]
5110 nM: IC50 [2]
> 10000 nM: IC50 [1]
active: viability, T/C [31] 4.68% | viability, T/C [32] 5.65% | viability, T/C [33] 4.53% | viability, T/C [34] 4.98% | viability, T/C [35] 4.96% | viability, T/C [36] 3.97% | viability, T/C [37] 1.7% | viability, T/C [38] 1.08% | viability, T/C [39] 1.16% | viability, T/C [40] 0.96% | viability, T/C [41] 0.92% | viability, T/C [42] 0.86%
inactive: viability, T/C [7] 73.6% | viability, T/C [8] 74.5% | viability, T/C [9] 69.3% | viability, T/C [10] 76% | viability, T/C [11] 72% | viability, T/C [12] 58.5% | viability, T/C [13] 63.7% | viability, T/C [14] 57.6% | viability, T/C [15] 55.5% | viability, T/C [16] 57.2% | viability, T/C [17] 51.3% | viability, T/C [18] 47.1% | viability, T/C [19] 36.1% | viability, T/C [20] 35% | viability, T/C [21] 30% | viability, T/C [22] 32.6% | viability, T/C [23] 28.7% | viability, T/C [24] 27.7% | viability, T/C [25] 23% | viability, T/C [26] 21.7% | viability, T/C [27] 20.9% | viability, T/C [28] 22.2% | viability, T/C [29] 20.1% | viability, T/C [30] 17.6%
